Measurements reported in article PMC12298391, “Novel Lung Cell-Penetrating Peptide Targets Alveolar Epithelial Type II Cells, Basal Cells, and Ionocytes” (Pharmaceutics, 2025).
Where a SMILES comes first, the peptide text is derived from it. The star is where a group is joined. X1 = CN1C(=CC=CC=CC2=[N+](CCCCCC(=O)*)c3ccc4ccccc4c3C2(C)C)C(C)(C)c2c1ccc1ccccc21

Key:
[1] = test system: Human bronchial epithelial cells; assay: Confocal microscopy of peptide uptake by HBECs; format: cell-based; conditions: 10 μM Cy5.5 peptide, 2, 10 and 30 min, 37 °C
Method: Identification and biodistribution of lung-targeting peptides: Eleven “alanine mutant” versions of CTP were synthesized along with the 6 N-terminus CTP-A (APWHLS) and 6 C-terminus CTP-B (SQYSRT), along with CTP peptide as a standard comparison. H9C2 cells, a rat cardiomyoblast cell line, were incubated with 10 μM of the fluorescent peptides, and FACS was performed (Figure 1A). H9C2 cells were chosen because initial phage display studies that led to the identification of CTP were conducted in this cell line, and we had prior evidence of successful transduction of these cells with CTP, which we used as a reference for comparing the alanine mutants. […]. These were injected intravenously in wild-type CD1 mice at a dose of 10 mg/kg. Counter to our expectations, uptake in the heart was negligible. […]; Supplementary Figure S1). […]
Supplemental Figure S2: Human bronchial epithelial cells transduce robustly with LTPs.
Human bronchial epithelial cells were plated on cover slips and treated with 10μM of linear
3x with pre-warmed PBS, fixed, counterstained with DAPI and confocal microscopy
have a cytoplasmic, peri-nuclear localization. Random peptide has very little to no uptake.
(1 picture or pasted object on this page, not shown here)

[2] = test system: human Cystic Fibrosis bronchial epithelial cells (CFBE41o-); assay: Transferrin uptake assay, colocalization with endocytosed Alexa-488 transferrin; format: cell-based; conditions: confocal; for Uptake by CFBE41o- cells over time: 4 °C, then 5 and 30 min at 37 °C; for Co-localization with endocytosed Alexa-488 transferrin: serum-starved cells, Cy5.5 peptides
Method: Endocytosis studies: In order to investigate the mechanism of cell entry, human bronchial epithelial cells (HBECs) were serum-starved overnight and subsequently treated with specific endocytic pathway inhibitors. […] At the end of the incubation period, the cells were washed, trypsinized, harvested, and fixed with 2% PFA for 10 min at room temperature (RT), followed by a single wash and resuspension in PBS, and they were subjected to FACS analysis. […] The cells were washed with cold PBS, incubated with Alexa-488-labeled transferrin on ice in a cold room, and incubated for an hour. At the end of incubation, Cy5.5-labeled random, linear or cyclic LTPs were added and transferred to 37 °C, and after each time point, the cells were washed and fixed in 4% PFA. The cells were stained with Hoechst and mounted for confocal imaging.
Figure 5 Cystic Fibrosis bronchial epithelial cells (CFBE41o-) uptake S7A and R11A without colocalization with endocytosed transferrin. CFBE41o- cells were serum-starved, followed by incubation with transferrin-488, or Cy5.5-labeled linear or cyclic Random, S7A, or R11A, followed by fixation at indicated time points, and confocal microscopy performed. […] (A). Linear peptide colocalization. (B). Cyclic peptide colocalization. (C). Quantification of relative fluorescence of cyclic peptides. ** p < 0.01, *** p < 0.001.

[3] = mouse, in vivo, iv, 5 mg/kg
Method: (§1) Wild-type, 6-week-old, CD1 (Charles Rivers, Wilmington, MA, USA; Cat #022) mice were weighed and anesthetized with an intraperitoneal injection of a 1:1 cocktail of Ketamine–Xylazine at 1–2 μL/gm body weight, followed by intravenous injection with Cy5.5-labeled peptides that were allowed to circulate for various time points. At the end of the circulation times, the mice were euthanized using inhalational CO2, their chest cavity was opened, their right atrium nicked and 3–5 mL of 10% formalin was injected through the left ventricular apex to perfusion-fix the animals. Various organs were harvested, rinsed once in PBS and imaged using an In Vivo Imaging System (IVIS; PerkinElmer Inc., Waltham, MA, USA) with identical instrument settings (stage position, exposure time, binning, F-stop, etc.). The organs were placed in 10% formalin at RT for 4 h, transferred to 15% sucrose at 4 °C overnight, followed by 30% sucrose at 4 °C overnight, before being embedded and cryo-sectioned at 6 μM thickness. The sections were cross-stained with various primary antibodies for ATII cells (ABCA3), basal cells (p63, KRT5), ionocytes (FOXI1), goblet cells (MUC5AC), ATI cells (HOPX), ciliated cells (acetylated tubulin), club cells (Uteroglobin), pulmonary endothelial cells (CD31), and airway smooth muscle cells (α-SMA) overnight at 4 °C. The sections were washed and incubated with Alexa-Fluor-488-conjugated secondary antibody at RT for 1 h. Additionally, kidney sections were stained with Lotus tetragonolobus Lectin-FITC (LTL-FITC) at RT for 1 h. All sections were then washed and mounted with DAPI, and confocal microscopy was performed. All peptides and time points were tested in triplicate (N = 3).

wild-type CD1 mice = conditions: 15 min, N = 3; for Uptake in the heart: confocal
Method: as §1

[4] = Serum stability in fetal bovine serum, mass spectrometry; format: in vitro ADME; conditions: 10 µg/mL, 37 °C/5% CO2, 0-360 min, acetonitrile precipitation, C-peptide internal standard, LC-MS full scan peak area, triplicate
Method: At the end of each incubation time point, the tubes were removed and placed on ice; 25 µL of 1 µM C-peptide as an internal standard was added to the tube and vigorously vortexed for 15 s, followed by the addition of 500 μL of acetonitrile to each tube, vortexing for 30 secs, and centrifugation at maximum speed in a tabletop centrifuge for 5 min at 4 °C. The clear supernatant was transferred to a new tube and analyzed using mass spectrophotometry. A full MS scan was performed from 600.0 to 725.0 m/z (mass/charge) without fragmentations in positive polarity at a resolution of 70,000 (the range option is 17,500–140,000). The maximum injection time was 200 msec. The gas flow rates in arbitrary units were as follows: 48 for sheath, 11 for auxiliary, and 3 for sweep. The spray voltage was 4.00 kV, with a spray current of 5.90µA, a capillary temperature of 320 °C, and an auxiliary gas temperature of 250 °C with the S-lens Radio Frequency (RF) set to 50 (arbitrary units from 0 to 100). […] Intensities were quantified as the peak area containing all ion species within the specified m/+2 range. Then, 20 µL of the sample was injected onto an Eclipse Plus C18 column (1.8 um; 2.1 × 50 mm) at 45 °C at a rate of 0.3 mL/min and eluted with a gradient of acetonitrile (in 0.1% formic acid) using water in 0.1% formic acid as the aqueous phase. […]

[5] = test system: lung cell types of wild-type mice; assay: Confocal microscopy of lung sections of injected mice cross-stained with cell markers; format: in vivo, mouse; conditions: 10 mg/kg i.v., 15 min, N = 3
Method: Animal studies: All animal protocols were approved by the University of Pittsburgh and the Mayo Clinic’s Institutional Animal Care and Use Committee. Wild-type, 6-week-old, CD1 (Charles Rivers, Wilmington, MA, USA; Cat #022) mice were weighed and anesthetized with an intraperitoneal injection of a 1:1 cocktail of Ketamine–Xylazine at 1–2 μL/gm body weight, followed by intravenous injection with Cy5.5-labeled peptides that were allowed to circulate for various time points. At the end of the circulation times, the mice were euthanized using inhalational CO2, their chest cavity was opened, their right atrium nicked and 3–5 mL of 10% formalin was injected through the left ventricular apex to perfusion-fix the animals. Various organs were harvested, rinsed once in PBS and imaged using an In Vivo Imaging System (IVIS; PerkinElmer Inc., Waltham, MA, USA) with identical instrument settings (stage position, exposure time, binning, F-stop, etc.). The organs were placed in 10% formalin at RT for 4 h, transferred to 15% sucrose at 4 °C overnight, followed by 30% sucrose at 4 °C overnight, before being embedded and cryo-sectioned at 6 μM thickness. […]

[6] = test system: SARS-CoV-2 (strain USA_WA1/2020); assay: microbe, parasite or virus in culture; format: cell-based; conditions: Severe acute respiratory syndrome coronavirus 2; HBEC inserts, air-liquid interface; treatment apical and basolateral 24 h prior to infection; MOI ~0.0015 CCID50 per cell; virus collected after 5 days, titrated on Vero 76; triplicate; read-out: EC90 (inhibition of viral replication)

Compound	Uptake by HBECs (confocal) [1]	Uptake by CFBE41o- cells over time [2]	Co-localization with endocytosed Alexa-488 transferrin [2]	tissue to tissue ratio at 0.25 h [3]	Uptake in the heart (wild-type CD1 mice; 10 mg/kg i.v., CD1 mice)	Lung uptake (wild-type CD1 mice; 10 mg/kg i.v., CD1 mice, confocal/IVIS)	Serum stability [4]	Uptake in AT2 and p63+ cells (confocal) compared with cR11A [5]	Uptake in ionocytes, AT-1, club, ciliated, goblet, endothelial and smooth muscle cells (confocal) [5]	Lung uptake at lowest dose (wild-type CD1 mice; 1 mg/kg i.v., ex vivo IVIS)	EC90 [6]
TALACYPHTVGQ [RAN, scrambled, random peptide […] used as control, reference compound]	no uptake	–	–	–	–	–	–	–	–	–	–
CC(C)C[C@H](NC(=O)[C@H](Cc1c[nH]cn1)NC(=O)[C@H](Cc1c[nH]c2ccccc12)NC(=O)[C@@H]1CCCN1C(=O)[C@H](C)NC(=O)CCCCC[N+]1=C(C=CC=CC=C2N(C)c3ccc4ccccc4c3C2(C)C)C(C)(C)c2c1ccc1ccccc21)C(=O)N[C@@H](CO)C(=O)N[C@@H](C)C(=O)N[C@@H](CCC(N)=O)C(=O)N[C@@H](Cc1ccc(O)cc1)C(=O)N[C@@H](CO)C(=O)N[C@@H](CCCNC(=N)N)C(=O)N[C@H](C(N)=O)[C@@H](C)O [S7A] (X1-APWHLSAQYSRT-NH2; C-terminus assumed)	taken up at 10 min with uptake increasing at 30 min	increasing uptake at 5 and 30 min	did not show co-localization	~2.5	negligible	robust lung uptake	–	–	–	–	–
CC(C)C[C@H](NC(=O)[C@H](Cc1c[nH]cn1)NC(=O)[C@H](Cc1c[nH]c2ccccc12)NC(=O)[C@@H]1CCCN1C(=O)[C@H](C)NC(=O)CCCCC[N+]1=C(C=CC=CC=C2N(C)c3ccc4ccccc4c3C2(C)C)C(C)(C)c2c1ccc1ccccc21)C(=O)N[C@@H](CO)C(=O)N[C@@H](CO)C(=O)N[C@@H](CCC(N)=O)C(=O)N[C@@H](Cc1ccc(O)cc1)C(=O)N[C@@H](CO)C(=O)N[C@@H](C)C(=O)N[C@H](C(N)=O)[C@@H](C)O [R11A]	taken up at 10 min with uptake increasing at 30 min	increasing uptake at 5 and 30 min	did not show co-localization	8	negligible	–	susceptibility to immediate degradation upon exposure to serum	much lesser amounts	no uptake	robust lung uptake	–
CCC(CC)COC(=O)[C@H](C)N[P@](=O)(OC[C@H]1O[C@@](C#N)(c2ccc3c(N)ncnn23)[C@H](O)[C@@H]1O)Oc1ccccc1 [Remdesivir]	–	–	–	–	–	–	–	–	–	–	19 nM
